# Data from patent US4762706A, “Peptide antibodies and their use in detecting oncogene products” (priority 1984, dated 1988).
# Target: T1, v-Ki-ras p21 protein (serine at position 12) (Kirsten murine sarcoma virus, UniProt P01117)
# T1 construct: made in house; host or cells: E. coli (plasmid pINIII-ras, a gift; lac promoter, IPTG induction)
# Assay: Inhibition by nucleotide of anti-p21ser antibody binding to p21 protein (immunoprecipitation under mild denaturation conditions)
# Conditions: high concentrations (10 mM) of nucleotide
# Description: In this example the antibody was used to immunoprecipitate a form of p21 protein which is known to contain serine at position 12. This protein is a E. coli expressing v-Ki-ras p21 protein (produced using a plasmid pINIII-ras which was constructed by and was a gift from M. Inouge of SUNY at Stony Brook, New York in which transcription was directed by the lac promoter--see Masui, Y. et al., in Experimental Manipulation of Gene Expression, M. Inogue, ed., Academic Press, N.Y., pp 15-32 (1983). Expression of this protein was induced by treatment of the cultures with 2 mM isopropylthiogalactoside (IPTG). Cell pellets were resuspended in 50 mM glucose, 25 mM Tris.HCl pH 8.0, 10 mM EDTA, 2 mg/ml lysozyme, and 0.01% aprotinin, and were then incubated for 30 minutes at 4° C. Triton X-100 was added to 1% concentration for 5 additional minutes. Following a 10-minute 15,000 xg spin, the supernatant was spun for an additional 2 hours at 150,000 xg to prepare the cleared lysate. One hundred-μl samples of the cleared cell lysate were incubated with 40 μCi ^32 P gamma-labeled guanosine triphosphate (GTP) for 30 minutes at 37° C. […] Immune complexes were washed with 0.5% NP40, 1M LiCl, 50 mM Tris.HCl, pH 8.0, 120 mM NaCl, and analyzed by SDS-PAGE. […]
# T1 sequence (P01117 whole entry): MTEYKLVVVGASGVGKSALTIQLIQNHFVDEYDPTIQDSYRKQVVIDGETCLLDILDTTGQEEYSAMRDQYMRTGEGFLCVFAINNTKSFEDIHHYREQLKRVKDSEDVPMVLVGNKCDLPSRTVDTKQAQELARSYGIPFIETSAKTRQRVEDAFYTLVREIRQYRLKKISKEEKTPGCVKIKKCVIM
smiles,measurement,value
"Nc1nc2c(ncn2[C@@H]2O[C@H](COP(=O)(O)OP(=O)(O)OP(=O)(O)O)[C@@H](O)[C@H]2O)c(=O)[nH]1 [GTP, guanosine triphosphate]",inhibition of the binding of anti-p21ser antibodies to p21 protein,substantially inhibit
